Values after ≈ are worked out from the molar mass of the structure shown.
Legend:
Leishmania major [1] = assay: Antileishmanial activity against Leishmania major MHOM/SA/85/JISH118 promastigote forms after 44 hrs by Alamar Blue assay; type: functional; conditions: MHOM/SA/85/JISH118, 44 h
Leishmania major [2] = assay: Antileishmanial activity against Leishmania major MHOM/SA/85/JISH118 promastigote forms after 48 hrs by flow cytometric analysis; type: functional; conditions: MHOM/SA/85/JISH118, 48 h
Leishmania major [3] = assay: Antileishmanial activity against Leishmania major MHOM/SA/85/JISH118 axenic amastigote forms after 44 to 46 hrs by Alamar Blue assay; type: functional
Leishmania tropica [4] = assay: Antileishmanial activity against Leishmania tropica amastigote forms infected in human monocyte-derived macrophage assessed as reduction in parasite infection at 2 ug/ml relative to control; type: functional; parameters: scale not given: the % may be the effect or the level left
Leishmania donovani [5] = assay: Antileishmanial activity against Leishmania donovani MHOM/IN/80/Dd8 amastigote forms infected in mouse J774A.1 cells assessed as reduction in parasite infection after 72 hrs by luciferase reporter gene assay; type: functional, cell-based; conditions: MHOM/IN/80/Dd8, J774.A1, 72 h
Leishmania donovani [6] = assay: Antileishmanial activity against Leishmania donovani MHOM/IN/80/Dd8 amastigote forms infected in golden hamster assessed as inhibition in parasite infection in spleen at 50 mg/kg, ip administered for 5 days measured at day 7 post treatment by giemsa-staining based assay relative to control; type: functional; conditions: MHOM/IN/80/Dd8, ip
[7] = Selectivity index, ratio of CC50 for mouse J774A.1 cells to IC50 for Leishmania donovani MHOM/IN/80/Dd8 amastigote forms infected in mouse J774A.1 cells; type: toxicity, cell-based; conditions: read-out: Ratio CC50/IC50
Leishmania mexicana [8] = assay: Antileishmanial activity against Leishmania mexicana MHOM/MX/95/NAN1 axenic amastigote forms after 96 hrs by uptiblue-based spectrofluorimetric analysis; type: functional; conditions: MHOM/MX/95/NAN1, 96 h
Leishmania mexicana [9] = assay: Antileishmanial activity against Leishmania mexicana MHOM/MX/95/NAN1 amastigote forms infected in Balb/c mouse peritoneal macrophages after 48 hrs by May-Grunwald-Giemsa staining-based assay; type: functional; conditions: MHOM/MX/95/NAN1, 48 h
Leishmania major [10] = assay: Antileishmanial activity against Leishmania major MHOM/SEN/96/NAN2 stationary phase promastigote forms infected in BALB/c mouse assessed as reduction in parasite burden in spleen at 10 mg/kg, ip qd administered for 5 consecutive days measured after 50 days by May-Grunwald-Giemsa staining-based method relative to control; type: functional; parameters: scale not given: the % may be the effect or the level left
Leishmania major [11] = assay: Antileishmanial activity against Leishmania major MHOM/SEN/96/NAN2 stationary phase promastigote forms infected in BALB/c mouse assessed as reduction in parasite burden in liver at 10 mg/kg, ip qd administered for 5 consecutive days measured after 50 days by May-Grunwald-Giemsa staining-based method relative to control; type: functional; parameters: scale not given: the % may be the effect or the level left
Leishmania major [12] = assay: Antileishmanial activity against Leishmania major MHOM/SEN/96/NAN2 stationary phase promastigote forms infected in BALB/c mouse assessed as reduction in parasite burden in popliteal node at 10 mg/kg, ip qd administered for 5 consecutive days measured after 50 days by May-Grunwald-Giemsa staining-based method relative to control; type: functional; parameters: scale not given: the % may be the effect or the level left
[13] = Cytotoxicity against mouse J774A.1 cells assessed as reduction in cell viability after 2 mins by trypan blue dye-light microscopic analysis; type: cell-based, J774.A1
Leishmania major [14] = assay: Antileishmanial activity against Leishmania major MRHO/IR/75/ER amastigote forms infected in mouse J774A.1 cells after 60 hrs by giemsa-staining based light microscopic analysis; type: functional, cell-based; conditions: J774.A1, 60 h
Leishmania major [15] = assay: Antileishmanial activity against Leishmania major MRHO/IR/75/ER promastigote forms after 72 hrs by MTT assay; type: functional
Leishmania braziliensis [16] = assay: Antileishmanial activity against Leishmania braziliensis MHOM/BR/75/M2903 promastigotes forms in presence of terbinafine by trypan blue-staining based light microscopy; type: functional
Leishmania chagasi [17] = assay: Antileishmanial activity against Leishmania infantum chagasi MHOM/BR/1972/LD promastigote forms infected in golden hamster after 48 hrs by Alamar Blue assay; type: functional
[18] = Cytotoxicity against mouse NCTC-929 cells assessed as reduction in cell viability after 48 hrs by Alamar Blue assay; type: cell-based; conditions: NCTC-929, 48 h
Leishmania chagasi [19] = assay: Antileishmanial activity against Leishmania infantum chagasi MHOM/BR/1972/LD amastigote forms infected in BALB/c mouse macrophage after 120 hrs by giemsa-staining based light microscopic analysis; type: functional
Leishmania donovani [20] = assay: Leishmanicidal activity against Leishmania donovani 1S MHOM/SD/00/1S-2D promastigote forms after 18 hrs by indirect microscopic analysis; type: functional
Leishmania amazonensis [21] = assay: Leishmanicidal activity against Leishmania amazonensis JOSEPHA promastigote forms after 18 hrs by indirect microscopic analysis; type: functional
Leishmania major [22] = assay: Leishmanicidal activity against Leishmania major KK promastigote forms after 18 hrs by indirect microscopic analysis; type: functional
Leishmania mexicana [23] = assay: Leishmanicidal activity against Leishmania mexicana 68 promastigote forms after 18 hrs by indirect microscopic analysis; type: functional; conditions: Leishmania mexicana, 68, 18 h
Leishmania mexicana [24] = assay: Leishmanicidal activity against Leishmania mexicana 390 promastigote forms after 18 hrs by indirect microscopic analysis; type: functional; conditions: Leishmania mexicana, 390, 18 h
Leishmania panamensis [25] = assay: Leishmanicidal activity against Leishmania panamensis LS94 promastigote forms after 18 hrs by indirect microscopic analysis; type: functional; conditions: LS94, 18 h
Leishmania panamensis [26] = assay: Leishmanicidal activity against Leishmania panamensis L334 promastigotes forms after 18 hrs by indirect microscopic analysis; type: functional; conditions: L334, 18 h
Leishmania amazonensis [27] = assay: Antileishmanial activity against Leishmania amazonensis LV78 promastigotes forms after 8 days; type: functional; conditions: LV78, 192 h
Leishmania major [28] = assay: Antileishmanial activity against Leishmania major MHOM/SN/74/Seidman promastigote forms after 8 days; type: functional; conditions: 192 h
Leishmania donovani [29] = assay: Antileishmanial activity against Leishmania donovani […] promastigote forms after 8 days; type: functional; conditions: 192 h
Leishmania major [30] = assay: Antileishmanial activity against Leishmania major infected in human assessed as healing of lesions at 200 mg/day, po administered for 6 weeks (reference value: 34%); type: functional
Leishmania braziliensis [31] = assay: Antileishmanial activity against Leishmania (Viannia) braziliensis infected in human assessed as cure rate at 5 to 8 mg/kg/day, po for 4 weeks; type: functional
Leishmania major [32] = assay: Antileishmanial activity against wild type Leishmania major LV39 Rho/SU/59/P promastigote forms after 48 hrs; type: functional
Leishmania major [33] = assay: Antileishmanial activity against Leishmania major LV39 Rho/SU/59/P promastigote forms harboring C14DM null mutant after 48 hrs; type: functional
Leishmania tropica [34] = assay: Antileishmanial activity against Leishmania tropica amastigote forms infected in human monocyte-derived macrophage assessed as reduction in parasite infection at 15 ug/ml relative to control; type: functional; parameters: scale not given: the % may be the effect or the level left
Leishmania mexicana [35] = assay: Antileishmanial activity against Leishmania mexicana Walter Reed 227 promastigote forms assessed as reduction in promastigotes sterol biosynthesis at 10 nM after 24 hrs in presence of [2-14C]mevalonate by liquid scintillation spectrometry analysis relative to control; type: functional; parameters: scale not given: the % may be the effect or the level left
Leishmania amazonensis [36] = assay: Antileishmanial activity against Leishmania amazonensis LV78 axenic amastigote forms after 8 days; type: functional; conditions: LV78, 192 h

Cc1ccc(OCCCCn2ccnc2)c(Cl)c1
EC50 (Leishmania major [1]): 0.21 µM
EC50 (Leishmania major [2]): 0.34 µM
EC50 (Leishmania major [3]): 11.7 µM

Clc1ccc([C@@]2(Cn3ccnc3)OC[C@H](COc3ccc(N4CCNCC4)cc3)O2)c(Cl)c1
Activity (Leishmania tropica [4]): 85%

Clc1cccc(CO/N=C2/c3cccc(Cl)c3CCC2Cn2ccnc2)c1 (stereo unspecified)
IC50 (Leishmania donovani [5]): 2.32 µM
inhibition in vivo at 50 mg/kg (Leishmania donovani [6]): 70%
selectivity ratio [7]: 25.6

CCn1cc(C(c2ccc(Cl)cc2Cl)n2ccnc2)c2cc(Br)ccc21 (stereo unspecified)
IC50 (Leishmania mexicana [8]): 4.4 µM
IC50 (Leishmania mexicana [9]): < 1 µM
Activity (Leishmania major [10]): 98.9%
Activity (Leishmania major [11]): 79%
Activity (Leishmania major [12]): 49.9%

O/N=C1/c2ccccc2OC(c2ccc(Cl)cc2)C1n1ccnc1 (stereo unspecified)
CC50 at 2 min [13]: 355 µM
IC50 (Leishmania major [14]): 0.6 µM

O/N=C1/c2ccccc2OC(c2cccc(Cl)c2)C1n1ccnc1 (stereo unspecified)
IC50 (Leishmania major [15]): 26.2 µM

O[C@](Cn1cncn1)(Cn1cnc(/C=C/c2ccc(OCC(F)(F)C(F)F)cc2)n1)c1ccc(F)cc1F
MIC (Leishmania braziliensis [16]): 0.03 µM

c1ccc(-c2ccc(C(c3ccccc3)n3ccnc3)cc2)cc1 (stereo unspecified) [BIFONAZOLE]
IC50 (Leishmania chagasi [17]): 8.97 µM
IC50 [18]: 39.2 to 42.7 µM

Clc1ccccc1C(c1ccccc1)(c1ccccc1)n1ccnc1 [CLOTRIMAZOLE]
IC50 (Leishmania chagasi [17]): 2.81 µM
IC50 [18]: 39.2 to 42.7 µM

Clc1ccc(COC(Cn2ccnc2)c2ccc(Cl)cc2Cl)cc1 (stereo unspecified) [ECONAZOLE]
IC50 (Leishmania chagasi [17]): 5.36 µM
IC50 (Leishmania chagasi [19]): 11 µM
IC50 [18]: 39.2 to 42.7 µM

OC(Cn1cncn1)(Cn1cncn1)c1ccc(F)cc1F [FLUCONAZOLE]
MIC (Leishmania donovani [20]): 104 µM (≈ 32 µg/mL)
MIC (Leishmania amazonensis [21]): 104 µM (≈ 32 µg/mL)
MIC (Leishmania major [22]): 104 µM (≈ 32 µg/mL)
MIC (Leishmania mexicana [23]): 104 µM (≈ 32 µg/mL)
MIC (Leishmania mexicana [24]): 104 µM (≈ 32 µg/mL)
MIC (Leishmania panamensis [25]): 104 µM (≈ 32 µg/mL)
MIC (Leishmania panamensis [26]): 104 µM (≈ 32 µg/mL)
IC50 (Leishmania amazonensis [27]): > 163 µM
IC50 (Leishmania major [28]): > 163 µM
IC50 (Leishmania donovani [29]): > 163 µM
Activity (Leishmania major [30]): 79%
Activity (Leishmania braziliensis [31]): 75 - 100%

CCC(C)n1ncn(-c2ccc(N3CCN(c4ccc(OCC5COC(Cn6cncn6)(c6ccc(Cl)cc6Cl)O5)cc4)CC3)cc2)c1=O (stereo unspecified) [ITRACONAZOLE]
IC50 (Leishmania major [32]): 0.4 µM
IC50 (Leishmania major [33]): 2 µM

CC(=O)N1CCN(c2ccc(OCC3COC(Cn4ccnc4)(c4ccc(Cl)cc4Cl)O3)cc2)CC1 (stereo unspecified) [KETOCONAZOLE]
Activity (Leishmania tropica [34]): 85%
Activity (Leishmania mexicana [35]): 50%
MIC (Leishmania braziliensis [16]): 0.03 µM
IC50 (Leishmania amazonensis [27]): 0.55 to 3.54 µM
IC50 (Leishmania major [28]): 0.55 to 3.54 µM
IC50 (Leishmania donovani [29]): 0.55 to 3.54 µM
IC50 (Leishmania amazonensis [36]): 3.14 µM
IC50 (Leishmania major [14]): 12.8 µg/mL

CC[C@@H]([C@H](C)O)n1ncn(-c2ccc(N3CCN(c4ccc(OC[C@@H]5CO[C@@](Cn6cncn6)(c6ccc(F)cc6F)C5)cc4)CC3)cc2)c1=O [POSACONAZOLE]
MIC (Leishmania donovani [20]): 11.4 to 22.8 µM (≈ 7.99 to 16 µg/mL)
MIC (Leishmania amazonensis [21]): 11.4 to 22.8 µM (≈ 7.99 to 16 µg/mL)
MIC (Leishmania major [22]): 11.4 to 22.8 µM (≈ 7.99 to 16 µg/mL)
MIC (Leishmania mexicana [23]): 11.4 to 22.8 µM (≈ 7.99 to 16 µg/mL)
MIC (Leishmania mexicana [24]): 11.4 to 22.8 µM (≈ 7.99 to 16 µg/mL)
MIC (Leishmania panamensis [25]): 11.4 to 22.8 µM (≈ 7.99 to 16 µg/mL)
MIC (Leishmania panamensis [26]): 11.4 to 22.8 µM (≈ 7.99 to 16 µg/mL)

C[C@@H](c1ncncc1F)[C@](O)(Cn1cncn1)c1ccc(F)cc1F [VORICONAZOLE]
IC50 (Leishmania amazonensis [27]): 6.1 to 10.4 µM
IC50 (Leishmania major [28]): 6.1 to 10.4 µM
IC50 (Leishmania donovani [29]): 6.1 to 10.4 µM
IC50 (Leishmania amazonensis [36]): 5.84 µM

Reference: ChEMBL document CHEMBL4052627, “An overview of azoles targeting sterol 14α-demethylase for antileishmanial therapy” (Eur J Med Chem, 2017)
